Patent US5869450A, “Anti-inflammatory compositions and method with corticotropin-releasing factor analogs” (priority 1996, dated 1999)
Non-standard residues stand in square brackets, D forms with d. No end group written: not given here.

Columns and labels:
CRF-R1 = molecular target: T1, CRF-R1 (Rattus norvegicus, UniProt P35353); test: cAMP stimulation in 293-EBNA cells transfected with CRF-R1 (PC-CRF receptor); type: cell-based; conditions: for EC50: Table 2, cAMP, 293-EBNA stable transfectants
T1 construct: Cells were transfected with the full-length cDNA of these receptors; expressed in transfected cells
T1 sequence (P35353 24-415): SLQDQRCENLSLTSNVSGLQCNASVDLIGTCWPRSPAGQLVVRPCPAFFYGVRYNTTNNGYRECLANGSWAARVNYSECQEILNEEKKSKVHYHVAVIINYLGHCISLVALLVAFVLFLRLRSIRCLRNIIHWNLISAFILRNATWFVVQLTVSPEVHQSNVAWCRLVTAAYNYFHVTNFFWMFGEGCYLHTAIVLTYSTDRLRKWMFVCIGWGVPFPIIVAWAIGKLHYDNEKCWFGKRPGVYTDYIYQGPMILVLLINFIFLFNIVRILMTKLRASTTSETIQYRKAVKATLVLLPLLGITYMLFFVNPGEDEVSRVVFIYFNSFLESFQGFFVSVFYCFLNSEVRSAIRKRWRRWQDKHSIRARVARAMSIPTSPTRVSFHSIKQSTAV
Method: These were the pituitary-central nervous system (PC)-CRF receptor and the heart muscle (HM)-CRF receptor, also called CRF-R1 and CRF-R2β. Cells were transfected with the full-length cDNA of these receptors. […] Stable transfectants were incubated with 50 μM 3-isobutylmethyl-1-methylxanthine for 20 minutes at 37° C. and then peptides were added and incubated for another 20 minutes at 37° C. Levels of cAMP were assayed in sextuplicate. Cells transfected with these CRF receptors are sensitive to the cAMP stimulatory effects of CRF.

CRF-R2β = molecular target: T2, CRF-R2β (Mus musculus, UniProt Q60748); test: cAMP stimulation in 293-EBNA cells transfected with CRF-R2β (HM-CRF receptor); type: cell-based; conditions: Table 2; for EC50: cAMP, 293-EBNA stable transfectants
T2 construct: Cells were transfected with the full-length cDNA of these receptors; expressed in transfected cells
T2 sequence (Q60748 1-431 isoform Q60748-2): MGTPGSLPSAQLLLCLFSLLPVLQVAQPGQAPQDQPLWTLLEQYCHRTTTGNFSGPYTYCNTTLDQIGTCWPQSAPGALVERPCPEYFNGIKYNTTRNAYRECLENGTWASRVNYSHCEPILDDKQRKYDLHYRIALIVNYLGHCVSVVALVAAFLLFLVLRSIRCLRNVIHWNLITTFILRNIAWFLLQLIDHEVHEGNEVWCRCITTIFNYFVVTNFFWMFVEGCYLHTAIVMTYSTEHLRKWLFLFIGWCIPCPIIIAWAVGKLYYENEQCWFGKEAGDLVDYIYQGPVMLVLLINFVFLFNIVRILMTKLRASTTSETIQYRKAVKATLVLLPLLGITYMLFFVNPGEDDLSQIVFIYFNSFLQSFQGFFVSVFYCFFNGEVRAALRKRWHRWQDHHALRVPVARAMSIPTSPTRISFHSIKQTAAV
Method: For another assay, two types of cloned CRF receptors were assessed for their responses to the CRF analogs. These were the pituitary-central nervous system (PC)-CRF receptor and the heart muscle (HM)-CRF receptor, also called CRF-R1 and CRF-R2β. Cells were transfected with the full-length cDNA of these receptors. These procedures were performed according to Chang et al., Neuron, 11, pp. 1187-1195 (1993) and Kishimoto et al., Proc. Natl. Acad. Sci. USA, 92, pp. 1108 (1995). cDNAS for the PC-CRF receptor and the HM-CRF receptor were subcloned into expression vector pCEP4 and transfected into 293-EBNA cells. Stable transfectants were incubated with 50 μM 3-isobutylmethyl-1-methylxanthine for 20 minutes at 37° C. and then peptides were added and incubated for another 20 minutes at 37° C. Levels of cAMP were assayed in sextuplicate. Cells transfected with these CRF receptors are sensitive to the cAMP stimulatory effects of CRF. […] As noted previously, the anti-inflammatory potency of these two analogs were also identical.

ACTH release = test: Relative ACTH-releasing potency of singly D-substituted ovine CRF analogs (FIG. 1); conditions: relative to unmodified oCRF
Source text: Turning to FIG. 1, 37 different ovine CRF analogs were singly substituted with a D-amino acid and screened for suppression of heat-induced edema and relative ACTH-releasing potency. […]

heat-induced edema [1] = conditions: intravenous; Wei and Kiang 1989; cited from earlier work
heat-induced edema [2] = test: Suppression of heat-induced edema in the anesthetized rat hind paw; type: in vivo
Method: The index of anti-inflammatory activity was measured as suppression by heat-induced edema. Briefly, male Sprague-Dawley rats weighing 200-250 g were anesthetized with sodium pentobarbital (60 mg/kg i.p.). Saline (1 ml/kg body weight) or test substances dissolved in saline were injected i.v. via a branch of the femoral vein. Ten minutes after injection, thermal stimulus was applied to the hind paw by immersion of the foot, up to the ankle joint, in 58° C. water for 1 minute. Thirty minutes after heat exposure, animals were killed by overdose with concentrated sodium pentobarbital and both hind paws were removed at the ankle joint and weighed. The degree of heat-induced edema was estimated as the difference between the weights of the heated and unheated paws divided by the weight of the unheated paw. Four to six analogs (N≥3 animals per dose level with 3 to 4 dose levels per analog) were tested on each occasion with concurrent saline controls. The median effective dose (ED50) was calculated according to the method of Litchfield and Wilcoxon (1949).

CRF binding protein = molecular target: T3, CRF binding protein (Homo sapiens, UniProt P24387); test: Complex formation of I125-labelled peptide with CRF-binding protein, Sephadex G100 column; conditions: radio-iodinated peptide, Sephadex G100 fractions
T3 sequence (P24387 25-322): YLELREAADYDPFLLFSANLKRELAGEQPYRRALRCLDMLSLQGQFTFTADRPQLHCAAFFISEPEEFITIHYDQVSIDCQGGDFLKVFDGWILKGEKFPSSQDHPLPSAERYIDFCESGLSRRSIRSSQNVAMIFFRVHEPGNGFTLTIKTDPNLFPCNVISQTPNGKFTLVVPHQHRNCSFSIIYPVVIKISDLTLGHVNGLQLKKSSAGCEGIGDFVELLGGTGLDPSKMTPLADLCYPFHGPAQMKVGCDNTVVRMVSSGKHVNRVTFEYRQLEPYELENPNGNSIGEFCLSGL
Method: Both peptides were radio-iodinated with I^125, incubated with CRF-binding protein, placed on a Sephadex G100 column and the fractions collected.

rat pituitary cells = test: In vitro ACTH release from rat pituitary segments, radioimmunoassay (FIG. 2); type: cell-based; conditions: ir-ACTH
Method: In determining ACTH release, an useful assay system to measure ACTH release by an in vitro assay is where basal or CRF-induced ACTH release is measured in the manner described by Vale et al. ("Assay of Corticotropin Releasing Factor," Methods in Enzymology: Neuroendocrine Peptides, 103, pp. 565-577, Conn. Ed., Academic Press, New York, 1983). The results shown in FIG. 2 were obtained by incubating the test peptides with segments of rat pituitary cells. After incubation the ACTH in the fluid bathing these segments were measured by radioimmunoassay (ir-ACTH) in units of pg of ACTH per mg of pituitary tissue. […] After the addition of CRF, this is increased in a dose-dependent relationship. […] However, the anti-edema potencies between these two peptides were identical.

[3] = i.v. 10 min before 58° C. water for 1 minute, paw weight 30 min after heat, 95% CL in brackets

## CC[C@H](C)[C@H](NC(=O)[C@H](CO)NC(=O)[C@H](CC(C)C)NC(=O)[C@H]1CCCN1C(=O)[C@@H]1CCCN1C(=O)[C@H](CC(=O)O)NC(=O)[C@@H](N)CC(=O)O)C(=O)N[C@@H](CC(=O)O)C(=O)N[C@@H](CC(C)C)C(=O)N[C@H](C(=O)N[C@@H](Cc1ccccc1)C(=O)N[C@@H](Cc1c[nH]cn1)C(=O)N[C@@H](CC(C)C)C(=O)N[C@@H](CC(C)C)C(=O)N[C@@H](CCCNC(=N)N)C(=O)N[C@H](C(=O)N[C@@H](CC(C)C)C(=O)N[C@@H](CC(C)C)C(=O)N[C@@H](CCC(=O)O)C(=O)N[C@@H](CC(C)C)C(=O)N[C@@H](C)C(=O)N[C@@H](CCCNC(=N)N)C(=O)N[C@H](C(=O)N[C@@H](CCC(N)=O)C(=O)N[C@@H](CO)C(=O)N[C@@H](CCC(N)=O)C(=O)N[C@@H](CCCNC(=N)N)C(=O)N[C@@H](CCC(=O)O)C(=O)N[C@@H](CCCNC(=N)N)C(=O)N[C@@H](C)C(=O)N[C@@H](CCC(=O)O)C(=O)N[C@@H](CCC(N)=O)C(=O)N[C@@H](CC(N)=O)C(=O)N[C@@H](CCCNC(=N)N)C(=O)N[C@H](C(=O)N[C@H](C(=O)N[C@@H](Cc1ccccc1)C(=O)N[C@@H](CC(=O)O)C(=O)N[C@@H](CO)C(=O)N[C@H](C(N)=O)C(C)C)[C@@H](C)CC)[C@@H](C)CC)[C@@H](C)O)[C@@H](C)O)[C@@H](C)O [[D-Pro^4]urocortin (rat)]
CRF-R1
  EC50: 0.2 nM
CRF-R2β; D-substituted analog versus parent peptide
  Increment in Selectivity: 2.5 fold
CRF-R2β
  EC50: 1 nM

## CC[C@H](C)[C@H](NC(=O)[C@H](CC(=O)O)NC(=O)[C@H](CC(C)C)NC(=O)[C@H](CC(C)C)NC(=O)[C@H](CCCCN)NC(=O)[C@H](CCCNC(=N)N)NC(=O)[C@H](CC(N)=O)NC(=O)[C@H](CO)NC(=O)[C@H](Cc1c[nH]cn1)NC(=O)[C@H](C)NC(=O)[C@H](CCC(N)=O)NC(=O)[C@H](CCC(N)=O)NC(=O)[C@H](C)NC(=O)[C@H](CC(C)C)NC(=O)[C@H](CCC(N)=O)NC(=O)[C@H](CC(=O)O)NC(=O)[C@H](C)NC(=O)[C@H](CCCCN)NC(=O)[C@@H](NC(=O)[C@H](CCSC)NC(=O)[C@H](CCC(=O)O)NC(=O)[C@H](CC(C)C)NC(=O)[C@@H](NC(=O)[C@H](CCC(=O)O)NC(=O)[C@H](CCCNC(=N)N)NC(=O)[C@H](CC(C)C)NC(=O)[C@H](CC(C)C)NC(=O)[C@H](Cc1c[nH]cn1)NC(=O)[C@H](Cc1ccccc1)NC(=O)[C@@H](NC(=O)[C@H](CC(C)C)NC(=O)[C@H](CC(=O)O)NC(=O)[C@H](CC(C)C)NC(=O)[C@H](CO)NC(=O)[C@@H](NC(=O)[C@H]1CCCN1C(=O)[C@@H]1CCCN1C(=O)[C@H](CCC(=O)O)NC(=O)[C@H](CCC(N)=O)NC(=O)[C@@H](N)CO)[C@@H](C)CC)[C@@H](C)O)C(C)C)[C@@H](C)O)C(=O)N[C@@H](C)C(N)=O [[D-Pro^5]oCRF]
ACTH release
  ACTH-releasing potency retained relative to the unmodified peptide: 8%

## CC[C@H](C)[C@H](NC(=O)[C@@H](NC(=O)[C@H](CC(=O)O)NC(=O)[C@H](CC(C)C)NC(=O)[C@H](CC(C)C)NC(=O)[C@H](CC(C)C)NC(=O)[C@H](CCCNC(=N)N)NC(=O)[C@H](CC(N)=O)NC(=O)[C@H](CC(N)=O)NC(=O)[C@H](C)NC(=O)[C@H](C)NC(=O)[C@H](CCC(N)=O)NC(=O)[C@H](CCC(N)=O)NC(=O)[C@H](CCCCN)NC(=O)[C@H](CCC(=O)O)NC(=O)[C@H](CCCCN)NC(=O)[C@H](CCC(=O)O)NC(=O)[C@H](CCC(N)=O)NC(=O)[C@H](CCCCN)NC(=O)[C@H](CCC(=O)O)NC(=O)[C@@H](NC(=O)[C@H](CCC(=O)O)NC(=O)[C@@H](NC(=O)[C@H](CCSC)NC(=O)[C@H](CCCCN)NC(=O)[C@H](CCCNC(=N)N)NC(=O)[C@H](CC(C)C)NC(=O)[C@H](CC(C)C)NC(=O)[C@H](CCC(=O)O)NC(=O)[C@H](CC(C)C)NC(=O)[C@H](CO)NC(=O)[C@H](CC(C)C)NC(=O)[C@H](CC(=O)O)NC(=O)[C@@H](NC(=O)[C@H](CO)NC(=O)[C@@H](NC(=O)[C@@H]1CCCN1C(=O)[C@@H]1CCCN1C(=O)CNC(=O)[C@@H]1CCC(=O)N1)[C@@H](C)CC)[C@@H](C)CC)[C@@H](C)CC)[C@@H](C)CC)[C@@H](C)O)C(N)=O [sauvagine]
heat-induced edema [1]
  ED50 for suppression of heat-induced edema in the rat: 0.44 nmol/kg

## CC[C@H](C)[C@H](NC(=O)[C@H](CO)NC(=O)[C@H](CC(C)C)NC(=O)[C@@H]1CCCN1C(=O)[C@@H]1CCCN1C(=O)[C@H](CC(=O)O)NC(=O)[C@@H](N)CC(=O)O)C(=O)N[C@@H](CC(=O)O)C(=O)N[C@@H](CC(C)C)C(=O)N[C@H](C(=O)N[C@@H](Cc1ccccc1)C(=O)N[C@@H](Cc1c[nH]cn1)C(=O)N[C@@H](CC(C)C)C(=O)N[C@@H](CC(C)C)C(=O)N[C@@H](CCCNC(=N)N)C(=O)N[C@H](C(=O)N[C@@H](CC(C)C)C(=O)N[C@@H](CC(C)C)C(=O)N[C@@H](CCC(=O)O)C(=O)N[C@@H](CC(C)C)C(=O)N[C@@H](C)C(=O)N[C@@H](CCCNC(=N)N)C(=O)N[C@H](C(=O)N[C@@H](CCC(N)=O)C(=O)N[C@@H](CO)C(=O)N[C@@H](CCC(N)=O)C(=O)N[C@@H](CCCNC(=N)N)C(=O)N[C@@H](CCC(=O)O)C(=O)N[C@@H](CCCNC(=N)N)C(=O)N[C@@H](C)C(=O)N[C@@H](CCC(=O)O)C(=O)N[C@@H](CCC(N)=O)C(=O)N[C@@H](CC(N)=O)C(=O)N[C@@H](CCCNC(=N)N)C(=O)N[C@H](C(=O)N[C@H](C(=O)N[C@@H](Cc1ccccc1)C(=O)N[C@@H](CC(=O)O)C(=O)N[C@@H](CO)C(=O)N[C@H](C(N)=O)C(C)C)[C@@H](C)CC)[C@@H](C)CC)[C@@H](C)O)[C@@H](C)O)[C@@H](C)O [urocortin (rat), reference compound]
CRF-R1
  EC50: 0.15 nM
CRF-R2β
  EC50: 0.32 nM

## NDDPPISIDLTFHLLRNMIEMARIENEREQAGLNRKYLDEV-NH2 (C-terminus assumed) [white sucker fish urotensin I]
heat-induced edema [1]
  ED50 for suppression of heat-induced edema in the rat: 1.5 nmol/kg

## NDDP[dP]ISIDLTFHLLRNMIEMARIENEREQAGLNRKYLDEV-NH2 [[D-Pro^5]white sucker fish urotensin I]
heat-induced edema [2]; [3]
  ED50 (95% CL) μg/kg i.v.: 9 (5-17) μg/kg

## SEEP[dP]ISLDLTFHLLREVLEMTKADQLAQQAHSNRKLMEII-NH2 [[D-Pro^5, Thr^22, Lys^23, Asp^25]h/rCRF]
CRF binding protein
  complex formation with CRF-binding protein: did not form a complex with binding protein
heat-induced edema [2]; Table 3, i.v.
  ED50 (95% CL) μg/kg i.v.: 19 µg/kg
heat-induced edema [2]; [3]
  ED50 (95% CL) μg/kg i.v.: 19 (9-38) μg/kg

## [D-Pro^5 ] human/rat CRF [[D-Pro^5]h/rCRF]
CRF binding protein
  complex formation with CRF-binding protein: formed a complex with binding protein
CRF-R1; FIG. 3, versus h/rCRF
  change of potency for CRF-R1 after replacement of Pro5 by D-Pro: reduced by about six-fold
heat-induced edema [2]; Table 3, i.v.
  ED50 (95% CL) μg/kg i.v.: 10 µg/kg
heat-induced edema [2]; [3]
  ED50 (95% CL) μg/kg i.v.: 10 (3-33) μg/kg
Rat pituitary cells
  decrease of potency for ACTH release versus CRF: at least 10 fold
